Legend:
[1] = system: MC4R; assay: α-MSH ISC response in human colon mucosa after antagonist pretreatment; format: cell-based; details: BIBO 300 nM, BIIE 1 μM, HS014 100 nM, each alone, 30 min prior to α-MSH
[2] = molecular target: MC4R (Mus musculus, UniProt P56450); assay: Short-circuit current; format: cell-based
[3] = system: GPR119; assay: Short-circuit current; format: cell-based, mouse; details: MC4R−/− mice, 10 μM apical

MC4R (Mus musculus, UniProt P56450), sequence (P56450 whole entry): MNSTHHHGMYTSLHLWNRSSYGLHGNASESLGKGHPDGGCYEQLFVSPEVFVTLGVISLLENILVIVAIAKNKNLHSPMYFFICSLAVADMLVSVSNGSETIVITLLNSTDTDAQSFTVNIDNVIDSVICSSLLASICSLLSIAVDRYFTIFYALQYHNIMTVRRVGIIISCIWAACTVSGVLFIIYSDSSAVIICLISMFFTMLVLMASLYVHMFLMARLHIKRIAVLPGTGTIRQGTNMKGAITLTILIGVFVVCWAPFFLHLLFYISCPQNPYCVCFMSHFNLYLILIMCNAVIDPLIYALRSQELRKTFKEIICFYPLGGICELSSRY

Row | SMILES | Effect of pretreatment on α-MSH (1 μM, bl) ISC response in human colon mucosa [1] | Effect of pretreatment on α-MSH (1 μM, bl) ISC response in mouse colon [2] | Response in MC4R−/− mucosae versus MC4R+/+ mucosae [3]
1 | NC(=O)NCc1ccc(CNC(=O)[C@@H](CCCN=C(N)N)NC(=O)C(c2ccccc2)c2ccccc2)cc1 [BIBO3304] | blockade | almost completely blocked | 
2 | N=C(N)NCCC[C@H](NC(=O)CC1(CC(=O)N2CCN(C3c4ccccc4NC(=O)c4ccccc43)CC2)CCCC1)C(=O)NCCn1c(=O)n(-c2ccccc2)n(-c2ccccc2)c1=O (some centres unmarked) [BIIE0246] | not by BIIE alone |  | 
3 | CC(C)(C)OC(=O)N1CCC(OCc2nc(-c3ccncc3)no2)CC1 [PSN632408] |  |  | not significantly different
4 | NC1=N[C@H](O)[C@H]2[C@H]3O[C@]4(O)O[C@@H]([C@@H](O)[C@@]2(N1)[C@@H]4O)[C@]3(O)CO [tetrodotoxin] |  | not tetrodotoxin (TTX) sensitive | 

From PMC4255280 (Cell metabolism, 2014)
